The values that follow come from patent US12180192B2, “Modulators of THR-β and methods of use thereof” (ALIGOS THERAPEUTICS, INC., priority 2019, dated 2024).

One experiment addresses T1, THR beta (Homo sapiens, UniProt P10828).
T1 construct: expressed in transfected cells; host or cells: HEK293T (ATCC CRL-3216)
T1 sequence (P10828 1-461): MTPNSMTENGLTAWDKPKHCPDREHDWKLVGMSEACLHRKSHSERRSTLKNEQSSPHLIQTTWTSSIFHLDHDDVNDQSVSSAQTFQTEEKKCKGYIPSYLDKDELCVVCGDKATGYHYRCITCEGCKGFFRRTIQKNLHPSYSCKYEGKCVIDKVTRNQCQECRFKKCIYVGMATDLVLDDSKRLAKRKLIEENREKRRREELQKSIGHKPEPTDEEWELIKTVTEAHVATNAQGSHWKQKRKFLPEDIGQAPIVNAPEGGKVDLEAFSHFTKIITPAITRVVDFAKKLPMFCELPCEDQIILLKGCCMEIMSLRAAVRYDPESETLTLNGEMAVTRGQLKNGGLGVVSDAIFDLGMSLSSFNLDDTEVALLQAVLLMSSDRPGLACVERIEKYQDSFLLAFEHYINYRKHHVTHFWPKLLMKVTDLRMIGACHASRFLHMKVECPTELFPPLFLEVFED
T1 sequence (P19793 1-462 partner): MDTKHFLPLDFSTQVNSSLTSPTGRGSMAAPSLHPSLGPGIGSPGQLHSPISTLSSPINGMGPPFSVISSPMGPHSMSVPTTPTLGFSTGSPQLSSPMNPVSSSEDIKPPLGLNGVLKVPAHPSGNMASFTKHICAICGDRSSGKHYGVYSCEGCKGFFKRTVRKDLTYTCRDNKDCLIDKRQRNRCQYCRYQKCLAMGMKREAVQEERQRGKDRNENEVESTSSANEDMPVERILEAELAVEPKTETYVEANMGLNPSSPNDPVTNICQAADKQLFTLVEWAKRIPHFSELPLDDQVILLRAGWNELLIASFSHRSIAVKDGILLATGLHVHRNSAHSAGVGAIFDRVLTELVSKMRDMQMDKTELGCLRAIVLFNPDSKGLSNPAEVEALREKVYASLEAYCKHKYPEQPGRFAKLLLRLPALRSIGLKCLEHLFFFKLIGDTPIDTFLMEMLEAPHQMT
The experiment can be described thus: HEK293T THR beta/RXR luciferase reporter assay (Assay 2). It is filed as cell-based. The note with it: for Emax: HEK-293T, read-out: Activity category Assay 2 THRβ (Emax); for EC50: THR-beta, HEK293T reporter assay, read-out: Activity category Assay 2 (EC50, THR-beta agonist). Put shortly:
(§1)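 HEK293T cells transiently transfected with TRE-luciferase reporter, RXR, and THR alpha or THR beta plasmid; ten five-fold compound dilutions from DMSO added for 18-24 h. One-Glo luminescence read; percent agonism normalized between negative and positive controls.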

Another experiment concerns the target T2, THR alpha (Homo sapiens, UniProt P10827).
T2 construct: expressed in transfected cells; host or cells: HEK293T (ATCC CRL-3216)
T2 sequence (P10827 1-410 isoform P10827-2): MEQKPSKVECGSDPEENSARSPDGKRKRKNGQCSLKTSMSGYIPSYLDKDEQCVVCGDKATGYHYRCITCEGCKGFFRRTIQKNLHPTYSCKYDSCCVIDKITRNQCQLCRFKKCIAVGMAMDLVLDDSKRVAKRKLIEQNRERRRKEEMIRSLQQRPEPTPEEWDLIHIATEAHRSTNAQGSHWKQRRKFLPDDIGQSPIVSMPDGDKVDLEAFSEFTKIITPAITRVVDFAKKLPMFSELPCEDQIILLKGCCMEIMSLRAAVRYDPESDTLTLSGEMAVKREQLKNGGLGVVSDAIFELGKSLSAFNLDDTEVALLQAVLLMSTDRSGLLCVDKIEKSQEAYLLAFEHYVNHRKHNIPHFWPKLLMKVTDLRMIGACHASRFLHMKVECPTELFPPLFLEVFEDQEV
T2 sequence (P19793 1-462 partner): T1 sequence (P19793 1-462 partner)
Description: HEK293T THR alpha/RXR luciferase reporter assay (Assay 2). It is filed as cell-based. The note with it: Assay 2; for Emax: HEK-293T, read-out: Activity category Assay 2 THRα (Emax); for EC50: Table 4, THR-alpha, read-out: Activity category Assay 2 (EC50, THR-alpha agonist activity). The method in brief:
as §1

On to `CC1(C)CC(c2cc(Oc3c(Cl)cc(-n4nc(N)c(=O)[nH]c4=O)cc3Cl)n[nH]c2=O)C1` [Compound 89, 6-Amino-2-(3,5-dichloro-4-((5-(3,3-dimethylcyclobutyl)-6-oxo-1,6-dihydropyridazin-3-yl)oxy)phenyl)-1,2,4-triazine-3,5(2H,4H)-dione], for which the Emax at THR beta (Table 5, Assay 2, THRβ) is 50 to 75%; on THR alpha (Table 5, THRα) it was below 50%. Moreover, on THR alpha, the concentration giving a half-maximal response (EC50) was in the range of 1000 to 10000 nM.
For `Cc1cccc(-c2cc(Oc3c(Cl)cc(-n4nc(N)c(=O)[nH]c4=O)cc3Cl)n[nH]c2=O)c1` [Compound 70, 6-Amino-2-(3,5-dichloro-4-((6-oxo-5-(m-tolyl)-1,6-dihydropyridazin-3-yl)oxy)phenyl)-1,2,4-triazine-3,5(2H,4H)-dione], the Emax on THR beta (Table 5, Assay 2, THRβ) is above 75%; at THR alpha (Table 5, THRα), 50 to 75%. For the same compound, the 50% effective concentration (EC50) was below 50 nM on THR beta and 50 to 250 nM at THR alpha.
For `CC(C)c1c[nH]c2nnc(Oc3c(Cl)cc(-n4nc(C#N)c(=O)[nH]c4=O)cc3Cl)cc12` [Compound 52, 2-[3,5-dichloro-4-([5-isopropyl-7H-pyrrolo[2,3-c]pyridazin-3-yl]oxy)phenyl]-3,5-dioxo-4H-1,2,4-triazine-6-carbonitrile] the same measures were above 75%, 50 to 75%, above 10000 nM and above 10000 nM.
For `Nc1nn(-c2cc(Cl)c(Oc3n[nH]c(=O)cc3-c3ccc4c(c3)CCCO4)c(Cl)c2)c(=O)[nH]c1=O` [Compound 115] the same measures were below 50%, below 50%, 250 to 1000 nM and above 10000 nM.
For `Cc1cc(-n2nc(N)c(=O)[nH]c2=O)cc(C)c1Cc1cc2c(C(C)C)c[nH]c2cn1` [Compound 157, 6-amino-2-[4-[(3-isopropyl-1H-pyrrolo[2,3-c]pyridin-5-yl)methyl]-3,5-dimethyl-phenyl]-1,2,4-triazine-3,5-dione] the same measures were above 75%, 50 to 75%, below 50 nM and 50 to 250 nM.
For `CC(C)c1cc(=O)[nH]c2ccc(Oc3c(Cl)cc(-n4nc(N)c(=O)[nH]c4=O)cc3Cl)cc12` [Compound 146, 6-amino-2-[3,5-dichloro-4-[(4-isopropyl-2-oxo-1H-quinolin-6-yl)oxy]phenyl]-1,2,4-triazine-3,5-dione], the Emax is 50 to 75% at THR beta (Table 5, Assay 2, THRβ) and below 50% on THR alpha (Table 5, THRα). The results for the half-maximal effective concentration (EC50) at THR beta and at THR alpha were below 50 nM and 50 to 250 nM, respectively.
For `Nc1nn(-c2cc(Cl)c(Oc3cc(C45CCC(C4)C5)c(=O)[nH]n3)c(Cl)c2)c(=O)[nH]c1=O` [Compound 101] the same measures were 50 to 75%, below 50%, 50 to 250 nM and 50 to 250 nM.
For `Cc1ccc(-c2cc(Oc3c(Cl)cc(-n4nc(N)c(=O)[nH]c4=O)cc3Cl)n[nH]c2=O)cc1C` [Compound 112] the same measures were below 50%, below 50%, 50 to 250 nM and 1000 to 10000 nM.
Regarding `CC(c1cc(Oc2c(Cl)cc(-n3nc(N)c(=O)[nH]c3=O)cc2Cl)n[nH]c1=O)C1CC(F)(F)C1` (single isomer, unassigned) [Compound 61-B, 6-amino-2-[3,5-dichloro-4-([5-[1-(3,3-difluorocyclobutyl)ethyl]-6-oxo-1H-pyridazin-3-yl]oxy)phenyl]-4H-1,2,4-tri-azine-3,5-dione], the concentration for a half-maximal effect (EC50) at THR beta and at THR alpha was 250 to 1000 nM in each case. For the same compound, the “Activity category Assay 2 THRβ (Emax)” value on THR beta (Table 5, Assay 2, THRβ) is given as “A (Emax≥75%)”. The “Activity category Assay 2 THRα (Emax)” value at THR alpha (Table 5, THRα) was “C (Emax<50%)”.
